Source: patent US7183309B2, “Indole derivatives useful as progesterone receptor modulators” (Janssen Pharmaceutica N.V., priority 2004, dated 2007)

Tested on: T47D human breast cancer cells
Assay: In Vitro Testing-T47 D Assay (alkaline phosphatase assay)
Assay type: cell-based
Settings: alkaline phosphatase luminescence readout after 24 h
Procedure: In Vitro Testing-T47 D Assay
T47D human breast cancer cells are grown in RPMI medium without phenol red (Invitrogen) containing 10% (v/v) heat-inactivated fetal bovine serum (FBS; Hyclone), 1% (v/v) penicillin-streptomycin (Invitrogen), 1% (w/v) glutamine (Invitrogen), and […] (Sigma). Incubation conditions are 37° C. in a humidified 5% (v/v) carbon dioxide environment. For assay, the cells are plated in 96-well tissue culture plates at 10,000 cells per well in assay medium [RPMI medium without phenol red (Invitrogen) containing 5% (v/v) charcoal-treated FBS (Hyclone) and 1% (v/v) penicillin-streptomycin (Invitrogen)]. Two days later, the medium is decanted and the compounds are added in a final concentration of 0.1% (v/v) dimethyl sulfoxide in fresh assay medium. Twenty-four hours later, an alkaline phosphatase assay is performed using a SEAP kit (BD Biosciences Clontech, Palo Alto, Calif.). Briefly, the medium is decanted and the cells are fixed for 30 minutes at room temperature with 5% (v/v) formalin (Sigma). The cells are washed once with room temperature Hank's buffered saline solution (Invitrogen). Equal volumes (0.05 mL) of 1× Dilution Buffer, Assay Buffer and 1:20 substrate/enhancer mixture are added. After 1-hour incubation at room temperature in the dark, the lysate is transferred to a white 96-well plate (Dynex) and luminescence is read using a LuminoSkan Ascent (Thermo Electron, Woburn, Mass.).

SMILES | IC50 (Homo sapiens, T47D, 24 h) | inhibition at 3 µM (Homo sapiens, T47D, 24 h) | other results
O=[N+]([O-])c1cccc(S(=O)(=O)c2c(-c3ccccc3)[nH]c3cc(Cl)c(F)cc23)c1 [Example 7, 6-Chloro-5-fluoro-3-(3-nitro-benzenesulfonyl)-2-phenyl-1H-indole] | 3.62 µM |  | inh. @ 3 uM: 55%
Fc1cc2c(Sc3ccccc3)c(-c3ccccc3)[nH]c2cc1Cl [Example 5, 6-Chloro-5-fluoro-2-phenyl-3-phenylsulfanyl-1H-indole] | 1.76 µM | 103% | 
O=[N+]([O-])c1cccc(S(=O)(=O)c2c(-c3ccccc3)[nH]c3cc(Cl)c(F)cc23)c1 [Example 8, 6-Chloro-5-fluoro-3-(3-nitro-benzenesulfonyl)-2-phenyl-1H-indole] |  |  | inh. @ 3 uM: 82%; IC50: 3.18 µM
O=[N+]([O-])c1ccc(Sc2c(-c3ccccc3)[nH]c3cc(Cl)c(F)cc23)cc1 [Example 3, 6-Chloro-5-fluoro-3-(4-nitro-phenylsulfanyl)-2-phenyl-1H-indole] | 1.4 µM | 88% | 
CC(C)(O)c1[nH]c2cc(C(F)(F)F)c([N+](=O)[O-])cc2c1Sc1ccccc1 [Example 1, 2-(5-Nitro-3-phenylsulfanyl-6-trifluoromethyl-1H-indol-2-yl)-propan-2-ol] |  |  | inhibition at 3 µM (Homo sapiens): 99%; IC50 (Homo sapiens): 0.062 µM
C=C(C)c1[nH]c2cc(C(F)(F)F)c([N+](=O)[O-])cc2c1Sc1ccccc1 [Example 2, 2-Isopropenyl-5-nitro-3-phenylsulfanyl-6-trifluoromethyl-1H-indole] | > 10 µM |  | 
O=[N+]([O-])c1cccc(Sc2c(-c3ccccc3)[nH]c3cc(Cl)c(F)cc23)c1 [Example 6, 6-Chloro-5-fluoro-3-(3-nitro-phenylsulfanyl)-2-phenyl-1H-indole] | 1.9 µM | 99% | 
CC(C)(O)c1[nH]c2cc(C(F)(F)F)c(C#N)cc2c1Sc1cccc([N+](=O)[O-])c1 [Example 4, 2-(1-Hydroxy-1-methyl-ethyl)-3-(3-nitro-phenylsulfanyl)-6-trifluoromethyl-1H-indole-5-carbonitrile] |  |  | inhibition at 3 µM (Homo sapiens): 69%; IC50 (Homo sapiens): 2.19 µM
